One series relates to HepG2 cells. Nature of the series: MTT antiproliferative assay on HepG2. Type of series: cell-based. Conditions: mean ± S.D. (n = 3), read-out: Cytotoxicity in IC50, HepG2. As to the method:
(§1) The antiproliferative activity of the thiophene compounds 3a–g, 4a–c, 6a, and 7a–d was evaluated by an in vitro MTT colorimetric assay on two oncogenic cell lines: liver (HepG2) and prostate (PC-3).
(§2) All cell lines (HepG2, PC-3, and nontumorigenic WI38) were supplied from VACSERA (Cairo, Egypt), cultured in DMEM (Invitrogen/Life Technologies, Waltham, MA, USA) at a density of 1.2–1.8 × 10,000 cells/well in a volume of 100 µL of the growth medium, and then incubated for 24 h, and an MTT assay was done as reported by.
For orientation: Formazan colour is commonly taken as a measure of viable cells.

The next series deals with PC-3 cells. Nature of the series: MTT antiproliferative assay on PC-3. The format is cell-based. Conditions: mean ± S.D. (n = 3), read-out: Cytotoxicity in IC50, PC-3. As to the method:
as §1, §2

In series [1] the target is T1, AKT-1 (Homo sapiens, UniProt P31749). Nature of the series: Akt kinase activity assay kit on cell lysate. Type of series: biochemical. Conditions: LY2780301 as reference.
From the text: The outcomes were expressed as IC50 values (mean standard deviation) calculated from the dose–response curves and their linear regression equations.
The target in series [2] is T1, AKT-1. Put plainly: Phospho-AKT1 (Ser473) cell-based phosphorylation ELISA in HepG2 cells. Set-up: endogenous in cells; host or cells: HepG2. As to the method:
To investigate the success of the design strategy developed in this work, the effect of the promising candidates 3b and 4c was assessed on AKT-1, a crucial protein, by determining their phosphorylation inhibition rate in HepG2 cells and measuring their biochemical kinase inhibitory activity.
VEGFR-2 phosphorylation was assayed using VEGFR2 Antibody (Phospho-Tyr951) (OAEC00085, AVIVA SYSTEM BIOLOGY), while Akt-1 was assayed by Mouse/Human/Rat Phospho-AKT1 (Ser473) (Cell-Based Phosphorylation ELISA) ELISA Kit-LS-F1447 (LSBio) according to manufacturer’s instructions.
Background: An ELISA detects its analyte on a solid surface through an enzyme-linked reagent.

Series [3] can be described thus: MTT assay on normal nononcogenic cell line WI38. Type of series: cell-based. Conditions: human, WI38 cells (normal nononcogenic cell line); MTT assay; noncancerous cell line; mean ± S.D. (n = 3); read-out: Cytotoxicity in IC50, WI38. As to the method: (§3) The aforementioned results illustrate that compounds 3b and 4c are the most promising cytotoxic agents on both cell lines and will be subjected to a thorough mechanistic study to understand their anticancer activity. However, before doing this, their selective toxicity and, thus, their safety were evaluated by measuring the IC50 values against the normal nononcogenic cell line (Wl38) by an MTT assay as listed in Table 1. […] Compound 3b gave SI of 6, and compound 4c gave SI = 12 showing better selectivity toward cancer cells than doxorubicin with SI = 5.
as §2

Another series has as its system WI38 cells. Nature of the series: MTT assay on normal nononcogenic cell line WI38. Particulars: calculated by dividing the IC50 of WI38/PC-3, SI > 2 is considered safe. The format is cell-based. As to the method:
as §3, §2

The subject of another series is caspase-3. Nature of the series: Active caspase-3 ELISA in HepG2 cells. The format is cell-based, human. As to the method:
Apoptosis is known to be carried out through three different pathways: intrinsic, extrinsic, and granzyme pathways. One of the controlling proteins in apoptosis is the cysteine protease named caspase with the chief executer caspase 3 [46, 47]. Accordingly, assessing the effect of 3b and 4c on the active caspase-3 level was done in HepG2 cells taking doxorubicin as the reference drug.
The colorimetric ELISA assay for active caspase-3 detection was carried out utilizing Invitrogen™ Caspase-3 (Cleaved) Human ELISA-Kit (KHO1091, CA, USA) according to the manufacturer’s procedures. ROBONIK P2000 ELISA reader was used at 450 nm, and the standard curve was obtained by plotting the mean absorbance of each standard concentration against human caspase-3 concentrations.

We go through 15 molecules from publication PMC9229165, “In Vitro Anticancer Activity Screening of Novel Fused Thiophene Derivatives as VEGFR-2/AKT Dual Inhibitors and Apoptosis Inducers” (Pharmaceuticals, 2022).

The structures appear in SMILES notation. Where two headings read alike, the source gives them in different places.

T1 sequence (P31749 whole entry): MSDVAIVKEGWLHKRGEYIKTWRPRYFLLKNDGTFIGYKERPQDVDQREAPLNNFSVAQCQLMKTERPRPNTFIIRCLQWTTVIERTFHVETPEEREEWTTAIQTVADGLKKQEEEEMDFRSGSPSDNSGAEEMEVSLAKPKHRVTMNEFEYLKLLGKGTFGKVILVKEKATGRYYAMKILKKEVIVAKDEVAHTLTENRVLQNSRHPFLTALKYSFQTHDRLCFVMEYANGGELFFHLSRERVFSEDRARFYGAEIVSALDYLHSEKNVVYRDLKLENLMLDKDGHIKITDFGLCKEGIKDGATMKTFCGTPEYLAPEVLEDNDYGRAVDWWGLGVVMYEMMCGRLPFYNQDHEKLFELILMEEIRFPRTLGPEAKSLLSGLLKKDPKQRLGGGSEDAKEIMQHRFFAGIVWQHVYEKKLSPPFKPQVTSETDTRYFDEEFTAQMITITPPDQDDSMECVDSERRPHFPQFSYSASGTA

On to `CCOC(=O)c1c(/N=C(/Nc2cc(C)ccc2Cl)SCC(=O)Nc2ccc(C)cc2)sc2c1N(C)CC2` [7d, Ethyl (Z)-2-((((2-chloro-5-methylphenyl)amino)((2-oxo-2-(p-tolylamino)ethyl)thio)methylene)amino)-4-methyl-5,6-dihydro-4H-thieno[3,2-b]pyrrole-3-carboxylate], for which the melting point was 118 to 120 °C. Moreover, in the series on HepG2 cells (Homo sapiens, HepG2, MTT assay), the IC50 is 8.91 ± 0.41 µM. In addition, the IC50 in the series on PC-3 cells (Homo sapiens, PC-3, MTT assay) is 6.35 ± 0.36 µM.

As to `CN(C)CCn1cc(-c2ccc(F)c(C(F)(F)F)c2)nc1C1CCN(c2ncnc3c2CC(=O)N3)CC1` [LY2780301, reference compound], it took 4.62 µM to reach half-maximal inhibition on AKT-1 [1] (IC50). Moreover, the “AKT-1 phosphorylation inhibition rate” value at AKT-1 [2] is reported as 68.6%.

Molecule `Cc1ccc(-c2nc3sc4c(c3c(=O)[nH]2)N(C)CC4)cc1` [3e, 5-Methyl-2-(p-tolyl)-3,5,6,7-tetrahydro-4H-pyrrolo[2′,3′:4,5]thieno[2,3-d]pyrimidin-4-one] returned a melting point of 155 to 156 °C. Also, the IC50 in the series with HepG2 cells (Homo sapiens, HepG2, MTT assay) was 22.4 ± 1.03 µM. Also, the IC50 with PC-3 cells (Homo sapiens, PC-3, MTT assay) came to 39.7 ± 2.22 µM.

Molecule `CCOC(=O)c1c(/N=C(/NC)SCC(=O)Nc2ccc(Cl)cc2)sc2c1N(C)CC2` [6a, Ethyl (Z)-2-((((2-((4-chlorophenyl)amino)-2-oxoethyl)thio)(methylamino)methylene)amino)-4-methyl-5,6-dihydro-4H-thieno[3,2-b]pyrrole-3-carboxylate] displayed a melting point of 140 to 141 °C. Also, the IC50 in the series with HepG2 cells (Homo sapiens, HepG2, MTT assay) amounted to 9.8 ± 0.45 µM. Further, the IC50 in the series with PC-3 cells (Homo sapiens, PC-3, MTT assay) turned out to be 0.5 ± 0.03 µM.

`COc1cc(-c2nc3sc4c(c3c(=O)[nH]2)N(C)CC4)cc(OC)c1OC` [3g, 5-Methyl-2-(3,4,5-trimethoxyphenyl)-3,5,6,7-tetrahydro-4H-pyrrolo[2′,3′:4,5]thieno[2,3-d]pyrimidin-4-one]: the IC50 with HepG2 cells (Homo sapiens, HepG2, MTT assay) came out at 3.77 ± 0.17 µM; in the series on PC-3 cells (Homo sapiens, PC-3, MTT assay) it was 20.5 ± 1.15 µM.

Molecule `CN1CCc2sc3nc(-c4ccccc4)[nH]c(=O)c3c21` [3a, 5-Methyl-2-phenyl-3,5,6,7-tetrahydro-4H-pyrrolo[2′,3′:4,5]thieno[2,3-d]pyrimidin-4-one] registered a melting point of more than 250 °C. The IC50 with HepG2 cells (Homo sapiens, HepG2, MTT assay) is 7.96 ± 0.37 µM. The concentration for half-maximal inhibition (IC50) in the series on PC-3 cells (Homo sapiens, PC-3, MTT assay) was determined as 29.6 ± 1.66 µM.

`CCOC(=O)c1c(/N=C(/Nc2cc(C)ccc2Cl)SCC(=O)Nc2ccc(Br)cc2)sc2c1N(C)CC2` [7b, Ethyl (Z)-2-((((2-((4-bromophenyl)amino)-2-oxoethyl)thio)((2-chloro-5-methylphenyl)amino)methylene)amino)-4-methyl-5,6-dihydro-4H-thieno[3,2-b]pyrrole-3-carboxylate]: the melting point was more than 250 °C. For the same molecule, the IC50 with HepG2 cells (Homo sapiens, HepG2, MTT assay) was 2.48 ± 0.11 µM. For the same molecule, in the series with PC-3 cells (Homo sapiens, PC-3, MTT assay), the half-maximal inhibitory concentration (IC50) came to 26.6 ± 1.49 µM.

In turn, `COc1ccc(-c2nc3sc4c(c3c(=O)[nH]2)N(C)CC4)cc1` [3f, 2-(4-Methoxyphenyl)-5-methyl-3,5,6,7-tetrahydro-4H-pyrrolo[2′,3′:4,5]thieno[2,3-d]pyrimidin-4-one] gave a melting point of 117 to 118 °C. Further, the IC50 with HepG2 cells (Homo sapiens, HepG2, MTT assay) was found to be 4.3 ± 0.2 µM. Besides, in the series with HepG2 cells (MTT assay), the 50% inhibitory concentration (IC50) is 4.3 ± 0.2 µM. The IC50 in the series with PC-3 cells (Homo sapiens, PC-3, MTT assay) stood at 7.47 ± 0.42 µM. Besides, the IC50 in the series on PC-3 cells (MTT assay) was 7.47 ± 0.42 µM.

On to `CCOC(=O)c1c(NC(=S)NC)sc2c1N(C)CC2` [4a, Ethyl 4-methyl-2-(3-methylthioureido)-5,6-dihydro-4H-thieno[3,2-b]pyrrole-3-carboxylate], for which the melting point was in the range of 132 to 134 °C. In the series on HepG2 cells (Homo sapiens, HepG2, MTT assay), the half-maximal inhibitory concentration (IC50) amounted to 41.1 ± 1.9 µM. Further, the IC50 in the series with PC-3 cells (Homo sapiens, PC-3, MTT assay) is 1.84 ± 0.1 µM.

`CN1CCc2sc3nc(-c4ccc(F)cc4)[nH]c(=O)c3c21` [3d, 2-(4-Fluorophenyl)-5-methyl-3,5,6,7-tetrahydro-4H-pyrrolo[2′,3′:4,5]thieno[2,3-d]pyrimidin-4-one] came in with a melting point of 108 to 110 °C. Moreover, the IC50 with HepG2 cells (Homo sapiens, HepG2, MTT assay) worked out at 13.4 ± 0.62 µM. The IC50 in the series on PC-3 cells (Homo sapiens, PC-3, MTT assay) is 19 ± 1.06 µM.

`CCOC(=O)c1c(/N=C(/Nc2cc(C)ccc2Cl)SCC(=O)Nc2ccc(OC)cc2)sc2c1N(C)CC2` [7c, Ethyl (Z)-2-((((2-chloro-5-methylphenyl)amino)((2-((4-methoxyphenyl)amino)-2-oxoethyl)thio)methylene)amino)-4-methyl-5,6-dihydro-4H-thieno[3,2-b]pyrrole-3-carboxylate] returned a melting point of 110 to 112 °C. For the same molecule, in the series on HepG2 cells (Homo sapiens, HepG2, MTT assay), the IC50 amounted to 39.6 ± 1.83 µM. Moreover, in the series with PC-3 cells (Homo sapiens, PC-3, MTT assay), the IC50 came to 9.72 ± 0.54 µM.

The molecule `CN1CCc2sc3nc(-c4ccc(Br)cc4)[nH]c(=O)c3c21` [3c, 2-(4-Bromophenyl)-5-methyl-3,5,6,7-tetrahydro-4H-pyrrolo[2′,3′:4,5]thieno[2,3-d]pyrimidin-4-one] came in with a melting point of 113 to 114 °C. Further, the IC50 in the series on HepG2 cells (Homo sapiens, HepG2, MTT assay) is 107 ± 4.94 µM. The IC50 with PC-3 cells (Homo sapiens, PC-3, MTT assay) came out at 10.5 ± 0.59 µM.

In turn, `CCOC(=O)c1c(/N=C(/Nc2cc(C)ccc2Cl)SCC(=O)Nc2ccc(Cl)cc2)sc2c1N(C)CC2` [7a, Ethyl (Z)-2-((((2-chloro-5-methylphenyl)amino)((2-((4-chlorophenyl)amino)-2-oxoethyl)thio)methylene)amino)-4-methyl-5,6-dihydro-4H-thieno[3,2-b]pyrrole-3-carboxylate] gave a melting point of 82 to 83 °C. Moreover, the IC50 in the series on HepG2 cells (Homo sapiens, HepG2, MTT assay) was determined as 27.3 ± 1.26 µM. In the series on PC-3 cells (Homo sapiens, PC-3, MTT assay), the IC50 was found to be 81.1 ± 4.54 µM.

Turning to `CCNC(=S)Nc1sc2c(c1C(=O)OCC)N(C)CC2` [4b, Ethyl 2-(3-ethylthioureido)-4-methyl-5,6-dihydro-4H-thieno[3,2-b]pyrrole-3-carboxylate], the melting point was in the range of 135 to 136 °C. The IC50 with HepG2 cells (Homo sapiens, HepG2, MTT assay) amounted to 34.2 ± 1.58 µM. In addition, in the series on PC-3 cells (Homo sapiens, PC-3, MTT assay), the IC50 was found to be 19.3 ± 1.08 µM.

For the molecule `COc1cccc2c1C(=O)c1c(O)c3c(c(O)c1C2=O)C[C@@](O)(C(=O)CO)C[C@@H]3O[C@H]1C[C@H](N)[C@H](O)[C@H](C)O1` [Doxorubicin, reference compound], the IC50 with HepG2 cells (Homo sapiens, HepG2, MTT assay) amounted to 2.09 ± 0.1 µM; in the series with PC-3 cells (Homo sapiens, PC-3, MTT assay), 2.53 ± 0.14 µM; in series [3] it was 9.84 ± 0.54 µM. The “Selectivity Index (SI)” value is on record as 4.69 in the series on WI38 cells and 5 in the series on WI38 cells (listed as doxorubicin). The “Increase in active caspase-3 level over the untreated cells” value in the series with caspase-3 was “seven-fold”.

For orientation: IC50 means the point on the concentration scale where inhibition reaches its midpoint. A word on the melting point: it is the temperature, or range, at which the solid turns liquid.
